Results as given in ChEMBL document CHEMBL2150865, “Remarkable potential of the α-aminophosphonate/phosphinate structural motif in medicinal chemistry” (J Med Chem, 2011).
Values belong to the compound of their own block, whether it stands above or below them.

Key:
[1] = molecular target: T1, Angiotensin-converting enzyme (Homo sapiens, UniProt P12821); assay: Inhibition of human ACE N-terminal domain expressed in CHO cells after 90 mins by fluorescence assay; format: cell-based
[2] = molecular target: T1, Angiotensin-converting enzyme; assay: Inhibition of human ACE C-terminal domain expressed in CHO cells after 90 mins by fluorescence assay; format: cell-based
[3] = Half life in pH 7.8 buffer; format: physicochemical
[4] = Inhibition of urease in intact Proteus mirabilis
MDA-MB-231 = assay: Growth inhibition of human MDA-MB-231 cells; format: functional, cell-based
[5] = Inhibition of bacterial APN; design: species or system Bacteria
[6] = AUC in healthy human at 10 mg dosed as single daily dose; format: ADME, organism-based; conditions: plasma
Homo sapiens [7] = assay: Reduction in diastolic blood pressure in hypertensive patient receiving 10 to 40 mg/day, po dosed as single or multiple dose; format: functional, Artery; design: scale not given: the % may be the effect or the level left
Homo sapiens [8] = assay: Reduction in systolic blood pressure in hypertensive patient receiving 10 to 40 mg/day, po dosed as single or multiple dose; format: functional, Artery; design: scale not given: the % may be the effect or the level left
Homo sapiens [9] = assay: Reduction in arterial blood pressure in hypertensive patient receiving 10 to 40 mg/day, po dosed as single or multiple dose; format: functional; design: scale not given: the % may be the effect or the level left
[10] = Tmax in healthy human at 10 mg dosed as single daily dose; format: ADME, organism-based; conditions: in vivo
[11] = Cmax in healthy human at 10 mg dosed as single daily dose; format: ADME, organism-based; design: dose 10 mg; conditions: in vivo
[12] = Drug absorption in healthy human at 10 mg dosed as single daily dose; format: ADME, organism-based; conditions: in vivo, read-out: Drug absorption
[13] = Inhibition of Bacillus pasteurii urease; design: species or system Sporosarcina pasteurii
Collagenase 3 = Collagenase 3 (Homo sapiens, UniProt P45452); assay: Inhibition of MMP-13
[14] = molecular target: Matrix metalloproteinase-14 (Homo sapiens, UniProt P50281); assay: Inhibition of MMP-14
Rattus norvegicus [15] = species on record: Rattus norvegicus; assay: Inhibition of bone resorption in rat; format: functional; conditions: read-out: MED
[16] = Tmax in Sprague-Dawley rat at 20 mg/kg, sc administered as single dose; format: ADME, organism-based; design: dose 20 mg/kg, route subcutaneous; conditions: in vivo
[17] = Half life in human at 200 mg, im; format: ADME, organism-based; conditions: in vivo
Rattus norvegicus [18] = assay: AUC in Sprague-Dawley rat at 20 mg/kg, sc administered as single dose; format: ADME, organism-based, Plasma; design: dose 20 mg/kg, route subcutaneous; conditions: in vivo
[19] = Half life in Sprague-Dawley rat at 20 mg/kg, sc administered as single dose; format: ADME, organism-based; design: dose 20 mg/kg, route subcutaneous; conditions: in vivo
[20] = molecular target: T1, Angiotensin-converting enzyme; assay: Inhibition of ACE
Rattus norvegicus [21] = assay: Suppression of acute pulmonary transplant rejection in rat at 100 mg/kg at 100 mg/kg followed by 60 mg/kg/day until day 4 after surgery measured on day 5 post initial dose; format: functional
Rattus norvegicus [22] = assay: Suppression of acute pulmonary transplant rejection in rat at 100 mg/kg; format: functional
[23] = Terminal half life in healthy human at 10 mg dosed as single daily dose; format: ADME, organism-based; conditions: in vivo, read-out: beta t1/2 (converted)
[24] = Total body clearance in healthy human at 10 mg dosed as single daily dose; format: ADME, organism-based; conditions: in vivo
[25] = molecular target: T2, Farnesyl pyrophosphate synthase (Homo sapiens, UniProt P14324)
T2 sequence (P14324 whole entry): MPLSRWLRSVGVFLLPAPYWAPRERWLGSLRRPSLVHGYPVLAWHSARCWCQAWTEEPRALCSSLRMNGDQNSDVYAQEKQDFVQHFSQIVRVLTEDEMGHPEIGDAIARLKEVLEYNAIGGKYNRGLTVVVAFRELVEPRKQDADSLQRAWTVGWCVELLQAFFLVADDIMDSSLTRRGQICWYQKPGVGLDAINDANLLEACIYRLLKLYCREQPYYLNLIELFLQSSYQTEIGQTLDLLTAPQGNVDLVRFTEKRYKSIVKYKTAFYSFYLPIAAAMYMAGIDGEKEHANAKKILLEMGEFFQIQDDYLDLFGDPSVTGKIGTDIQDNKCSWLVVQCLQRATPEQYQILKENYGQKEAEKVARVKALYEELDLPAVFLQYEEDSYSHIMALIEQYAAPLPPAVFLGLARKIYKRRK

Cytosol aminopeptidase = Cytosol aminopeptidase (Homo sapiens, UniProt P28838); assay: Inhibition of LAP
Cytosol aminopeptidase, sequence (P28838 whole entry): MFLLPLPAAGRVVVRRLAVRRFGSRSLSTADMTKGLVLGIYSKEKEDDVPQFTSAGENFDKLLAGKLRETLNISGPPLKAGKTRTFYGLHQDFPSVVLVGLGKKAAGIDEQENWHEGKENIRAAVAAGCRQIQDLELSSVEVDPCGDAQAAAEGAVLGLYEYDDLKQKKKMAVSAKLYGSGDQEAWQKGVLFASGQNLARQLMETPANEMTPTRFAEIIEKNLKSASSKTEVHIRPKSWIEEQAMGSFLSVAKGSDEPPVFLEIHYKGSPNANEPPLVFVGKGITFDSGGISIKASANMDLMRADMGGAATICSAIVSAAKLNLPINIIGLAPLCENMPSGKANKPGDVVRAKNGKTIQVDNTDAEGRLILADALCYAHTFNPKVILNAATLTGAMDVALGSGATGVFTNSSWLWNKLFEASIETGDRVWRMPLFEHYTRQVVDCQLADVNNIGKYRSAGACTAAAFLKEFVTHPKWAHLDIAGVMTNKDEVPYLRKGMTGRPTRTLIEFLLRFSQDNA

[26] = Inhibition of ECE
Aminopeptidase N = Aminopeptidase N (Homo sapiens, UniProt P15144); assay: Inhibition of APN
Aminopeptidase N, sequence (P15144 whole entry): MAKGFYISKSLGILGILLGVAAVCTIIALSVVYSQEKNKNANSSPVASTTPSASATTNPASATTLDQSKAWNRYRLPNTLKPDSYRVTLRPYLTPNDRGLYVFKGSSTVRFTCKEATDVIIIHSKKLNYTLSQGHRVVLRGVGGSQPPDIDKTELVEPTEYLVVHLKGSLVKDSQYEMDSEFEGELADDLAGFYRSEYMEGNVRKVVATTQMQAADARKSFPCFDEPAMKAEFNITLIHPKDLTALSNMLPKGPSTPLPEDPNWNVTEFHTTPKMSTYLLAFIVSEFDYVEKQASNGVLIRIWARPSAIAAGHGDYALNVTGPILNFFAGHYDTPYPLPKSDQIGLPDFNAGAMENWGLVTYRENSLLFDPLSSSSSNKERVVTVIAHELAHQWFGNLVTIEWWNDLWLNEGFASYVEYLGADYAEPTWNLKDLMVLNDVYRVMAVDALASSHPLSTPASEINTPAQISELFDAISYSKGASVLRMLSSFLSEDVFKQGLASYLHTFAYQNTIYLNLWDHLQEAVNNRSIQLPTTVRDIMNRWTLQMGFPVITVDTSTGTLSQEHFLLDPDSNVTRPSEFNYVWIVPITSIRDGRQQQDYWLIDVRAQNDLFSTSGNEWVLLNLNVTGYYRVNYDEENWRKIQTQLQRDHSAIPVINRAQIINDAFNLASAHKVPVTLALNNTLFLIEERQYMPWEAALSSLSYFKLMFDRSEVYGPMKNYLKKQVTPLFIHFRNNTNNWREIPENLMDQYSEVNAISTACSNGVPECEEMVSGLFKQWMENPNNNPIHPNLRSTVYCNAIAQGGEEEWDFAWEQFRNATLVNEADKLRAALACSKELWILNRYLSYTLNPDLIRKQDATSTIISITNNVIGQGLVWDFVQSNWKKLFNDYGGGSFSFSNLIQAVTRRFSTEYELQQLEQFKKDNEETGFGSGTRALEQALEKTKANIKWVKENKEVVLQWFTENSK

Oryctolagus cuniculus = assay: Inhibition of DPP4 activity in rabbit plasma at 1 to 10 mg, iv; format: functional

T1 sequence (P12821 whole entry, the tested form may be a part): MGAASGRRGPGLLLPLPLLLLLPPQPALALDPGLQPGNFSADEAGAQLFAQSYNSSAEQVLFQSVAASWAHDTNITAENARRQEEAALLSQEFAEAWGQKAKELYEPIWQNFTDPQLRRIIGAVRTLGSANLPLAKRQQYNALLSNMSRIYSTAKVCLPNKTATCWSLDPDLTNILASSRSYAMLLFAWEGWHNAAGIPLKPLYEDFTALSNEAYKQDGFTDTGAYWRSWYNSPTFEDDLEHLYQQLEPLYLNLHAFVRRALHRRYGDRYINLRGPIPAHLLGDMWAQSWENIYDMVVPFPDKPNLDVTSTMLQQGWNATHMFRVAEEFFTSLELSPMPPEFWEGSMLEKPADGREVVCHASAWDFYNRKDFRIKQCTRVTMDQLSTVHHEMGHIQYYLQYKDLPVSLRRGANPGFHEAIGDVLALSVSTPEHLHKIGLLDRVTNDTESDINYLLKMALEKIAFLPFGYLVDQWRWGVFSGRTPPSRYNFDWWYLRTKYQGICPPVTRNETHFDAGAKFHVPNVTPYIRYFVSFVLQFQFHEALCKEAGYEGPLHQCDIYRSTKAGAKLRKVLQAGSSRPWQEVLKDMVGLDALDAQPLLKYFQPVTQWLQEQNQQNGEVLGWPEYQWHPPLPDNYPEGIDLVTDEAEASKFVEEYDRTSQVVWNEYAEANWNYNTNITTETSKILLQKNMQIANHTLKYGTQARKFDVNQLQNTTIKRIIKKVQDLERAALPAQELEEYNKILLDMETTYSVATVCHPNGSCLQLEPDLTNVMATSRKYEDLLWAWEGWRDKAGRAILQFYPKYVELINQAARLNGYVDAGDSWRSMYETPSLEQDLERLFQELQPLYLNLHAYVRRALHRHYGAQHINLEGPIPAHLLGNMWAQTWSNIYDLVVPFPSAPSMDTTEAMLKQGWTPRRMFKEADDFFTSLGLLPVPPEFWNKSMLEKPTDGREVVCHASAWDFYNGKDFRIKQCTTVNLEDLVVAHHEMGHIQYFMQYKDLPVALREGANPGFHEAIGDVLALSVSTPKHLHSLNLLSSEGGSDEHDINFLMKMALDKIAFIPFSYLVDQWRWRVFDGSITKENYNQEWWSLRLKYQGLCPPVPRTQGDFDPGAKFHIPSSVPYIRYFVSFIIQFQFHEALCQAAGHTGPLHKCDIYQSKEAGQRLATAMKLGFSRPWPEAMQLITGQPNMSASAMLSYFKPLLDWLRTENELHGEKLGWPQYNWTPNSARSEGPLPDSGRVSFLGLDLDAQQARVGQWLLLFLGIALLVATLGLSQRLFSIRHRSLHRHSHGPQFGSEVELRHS

Ki [1]: 7 nM | Ki [2]: 7500 nM
SMILES: CC(=O)N[C@@H](CC(=O)O)C(=O)N[C@@H](Cc1ccccc1)P(=O)(O)C[C@@H](C)C(=O)N[C@@H](C)C(N)=O

SMILES: C[C@H](N)C(=O)N1CCCC1P(=O)(Oc1ccc(Cl)cc1)Oc1ccc(Cl)cc1 (stereo not given in full)
half-life [3]: > 48 h

IC50 [4]: 64400 nM
SMILES: CC(=O)NO [ACETOHYDROXAMIC ACID]

IC50 (MDA-MB-231): 100 nM
SMILES: CCCCCCCCCCOc1ccc[n+](CC(P(=O)([O-])O)P(=O)(O)O)c1 (stereo not given)

Ki [5]: 1.5 nM
SMILES: C[C@H](N)P(=O)(O)C[C@@H](Cc1ccccc1)C(=O)N[C@@H](Cc1ccccc1)C(=O)O

AUC [6]: 1000 ng·h/mL | Tmax [10]: 3 h | Cmax [11]: 100 ng/mL | Fa [12]: 30%
SMILES: CCC(=O)O[C@@H](O[P@](=O)(CCCCc1ccccc1)CC(=O)N1C[C@H](C2CCCCC2)C[C@H]1C(=O)O)C(C)C [FOSINOPRIL]
Activity (Homo sapiens [7]): 10% | Activity (Homo sapiens [8]): 10% | Activity (Homo sapiens [9]): 10%

SMILES: CNCP(C)(=O)O [METHYL((METHYLAMINO)METHYL)PHOSPHINIC ACID]
Ki [13]: 18000 nM | IC50 [4]: 36000 nM

SMILES: CCOC(=O)CNC(=O)c1ccc(OP(=O)(Oc2ccc(C(=O)NCC(=O)OCC)cc2)C2CCCN2C(=O)[C@@H]2CCCN2)cc1 (stereo not given in full)
half-life [3]: 0.583 h

Ki (Collagenase 3): 28 nM | Ki [14]: 5100 nM
SMILES: NC(=O)[C@H](Cc1c[nH]c2ccccc12)NC(=O)[C@@H](CP(=O)(O)[C@H](Cc1ccccc1)NC(=O)OCc1ccccc1)c1cc(-c2cccc(Oc3ccccc3)c2)no1

SMILES: NCCCC(O)(P(=O)(O)O)P(=O)(O)O [ALENDRONIC ACID]
minimal effective dose (Rattus norvegicus [15]): 1 µg/kg

SMILES: O=P(O)(O)C(O)(Cc1cccnc1)P(=O)(O)O [RISEDRONIC ACID]
minimal effective dose (Rattus norvegicus [15]): 0.3 µg/kg

Ki [1]: 10000 nM | Ki [2]: 3 nM
SMILES: O=C(N[C@@H](Cc1ccccc1)P(=O)(O)C1CCC[C@H]1C(=O)N[C@@H](Cc1c[nH]c2ccccc12)C(=O)O)OCc1ccccc1 (stereo not given in full)

SMILES: CP(O)(=S)CNC(=O)CNC(=O)OCc1ccccc1 (stereo not given)
Ki [13]: 170 nM

SMILES: CN(C)CP(C)(=O)O [(DIMETHYLAMINO)METHYL(METHYL)PHOSPHINIC ACID]
Ki [13]: 620 nM

SMILES: NCCC(O)(P(=O)(O)O)P(=O)(O)O [PAMIDRONIC ACID]
minimal effective dose (Rattus norvegicus [15]): 30 µg/kg

SMILES: NCP(=O)(O)CO [AMINOMETHYL(HYDROXYMETHYL)PHOSPHINIC ACID]
Ki [13]: 95000 nM

Tmax [16]: 0.333 h | half-life [17]: 1 h | AUC (Rattus norvegicus [18]): 25000 ng·h/mL | half-life [19]: 0.333 h
SMILES: C[C@H](N)C(=O)N[C@@H](C)P(=O)(O)O [ALAFOSFALIN]

SMILES: CP(=O)(O)CNC(=O)CN
Ki [13]: 21000 nM

SMILES: CN(C)CP(=O)(O)CO [(DIMETHYLAMINO)METHYL(HYDROXYMETHYL)PHOSPHINIC ACID]
Ki [13]: 5000 nM

IC50 [20]: 12 nM
SMILES: O=C(N[C@@H](CCc1ccccc1)CP(=O)(O)CC(=O)N1CCC[C@H]1C(=O)O)c1ccccc1

SMILES: CC(=O)Nc1ccc(OP(=O)(Oc2ccc(NC(C)=O)cc2)C2CCCN2C(=O)[C@@H]2CCCN2)cc1 (stereo not given in full)
Activity (Rattus norvegicus [21]): >90% | Activity (Rattus norvegicus [22]): >95% | half-life [3]: 5.33 h

half-life [23]: 12 h | Ki [20]: 1.5 nM | clearance [24]: 25.8 mL/min
SMILES: O=C(O)[C@@H]1C[C@@H](C2CCCCC2)CN1C(=O)CP(=O)(O)CCCCc1ccccc1 [FOSINOPRILAT]

SMILES: CP(=O)(O)CN [AMINOMETHYL(METHYL)PHOSPHINIC ACID]
Ki [13]: 340000 nM

SMILES: O=P(O)(O)C(NC1CCCCCC1)P(=O)(O)O [INCADRONIC ACID]
minimal effective dose (Rattus norvegicus [15]): 1 µg/kg | IC50 [25]: 30 nM

SMILES: CNCP(=O)(O)CO [HYDROXYMETHYL((METHYLAMINO)METHYL)PHOSPHINIC ACID]
Ki [13]: 430 nM

SMILES: O.O=P(O)(O)C(O)(Cn1ccnc1)P(=O)(O)O [ZOLEDRONIC ACID]
minimal effective dose (Rattus norvegicus [15]): 0.1 µg/kg

SMILES: C[C@H](N)C(=O)N1CCCCC1P(=O)(Oc1ccc(Cl)cc1)Oc1ccc(Cl)cc1 (stereo not given in full)
half-life [3]: > 48 h

Ki (Cytosol aminopeptidase): 58000 nM
SMILES: CC(C)CC(N)P(=O)(O)O[C@@H](CC(C)C)C(=O)O (stereo not given in full)

Ki [26]: 14 nM
SMILES: O=C(N[C@@H](Cc1ccccc1)P(=O)(O)C[C@H](Cc1cc(-c2ccccc2)no1)C(=O)N[C@@H](Cc1ccc(O)cc1)C(=O)O)OCc1ccccc1

SMILES: CC(C)CC(CP(=O)(O)[C@@H](N)CC(C)C)C(=O)O (mixture of isomers)
Ki (Cytosol aminopeptidase): 65 nM | Ki (Aminopeptidase N): 1020 nM

SMILES: O=C([C@@H]1CCCN1)N1CCCC1P(=O)(Oc1ccccc1)Oc1ccccc1 (stereo not given in full)
inhibition (INH) (Oryctolagus cuniculus): 80%
